# Results published in patent publication US20130034496A1, “POSITRON EMISSION TOMOGRAPHY TRACER” (UNIVERSITY OF IOWA RESEARCH FOUNDATION, priority 2011, published 2013).
# Like-named read-outs stand apart in the source and are kept apart here.
# Tests used:
# cancerous cell lines [1] = experiment: Washout of label from cells / retention; assay type: cell-based, human
# Procedure: (§1) Washout of label from cells—After labeling cells grown in four plates as described before, one culture plate was processed and total incorporation was measure by liquid scintillation counter (LSC). This uptake was regarded as 100%. From the remaining three culture plates, medium was removed, cells were washed twice with cold PBS and then normal growth medium (5 mL) was added at 37° for 30 min. The radiotracer released in the medium after 30 min was counted by LSC in triplicate, and cells were replenished with fresh 5 mL medium for next 30 min washing. The release of radiotracer was followed up to 120 min. Measurement of cell growth rate-The cells were seeded at a density of 4×10^4 cells/cm^2 in each of four 6-cm (20 cm^2) plates containing 5 mL medium and placed in incubator maintained at the conditions described above. Once the cells were in log-phase (48 h post plating), two plates were processed to count the total cells. The average number of cells from these plates was regarded as pl. After next 24 h, the remaining two plates were processed, and the total cells were counted again (p2). The doubling time was then calculated by using formula
# (§2) To examine the release of radioactivity from these cells, the ^14C-MTHF-loaded cells (after 2 hours uptake) were placed in fresh complete medium containing an excess of unlabeled folate at 37° C. The medium was replaced after every 30 min and the radiotracer released in the medium was measured by LSC. […] In case of cancerous cell lines, the release of the radiotracer was not more than 20%. After 30 min, the release of the radioactivity in the medium was slow and reached to the background value after two successive washings. After washing, the label retained in each cell line was determined and plotted in FIG. 6.
# normal cells = experiment: Washout of label from cells / retention; assay type: cell-based, human
# Procedure: as §1, §2
# MIAPaCa tumor = experiment: Animal studies with ^14C-MTHF, distribution of radioactivity; assay type: in vivo; details: nude mice with MIAPaCa tumor; after one hour
# FHC [2] = experiment: Cell cycle analysis (propidium iodide, flow cytometry); assay type: cell-based, human; details: aphidicolin-arrested cells
# Procedure: (§3) Cell cycle analysis—Cells in log phase at the same confluency used for uptake experiments or growth inhibited cells by aphidicolin treatment were harvested using trypsin and washed twice with cold PBS. The cells were suspended as 1×10^6/ml density in PBS and fixed with 70% ethanol at −20° C. The DNA content of the cells was stained with 1 mL of staining buffer containing propidium iodide (5 μg/ml), RNAse A (1 mg/ml), glucose (1 mg/ml) in PBS. The stained cells were filtered through 70 μm nylon strainer and then analyzed for DNA content on FASCan flow-cytometer (Becton Dickinson) using Flo-Jo software.
# (§4) Cell cycle vs. MTHF uptake. Biosynthesis of DNA and its precursor bases increases during S-phase of the cell cycle. […] Unsynchronized cells, as used for labeling, were alcohol-fixed and the DNA stained with propidium iodide (PI). DNA content can be used as a proxy for determining cell cycle stage. The DNA content was then analyzed by FACSCAN flow cytometer and data were processed by using Facscaliber software. […] Alternatively, when the cells were treated with aphidicolin, an inhibitor of DNA polymerase-α, the proliferation index is reduced up to 4-fold. […] In another experiment, we treated cells with a chemotherapeutic agent (methotrexate) for 24 h and then incubated with ^14C-MTHF for 1 h and observed a 90-95% decline in uptake relative to cells not treated with methotrexate.
# HMEC [3] = experiment: as above; assay type: cell-based, human; details: aphidicolin-arrested cells
# Procedure: as §3, §4
# HT-29 [4] = experiment: as above; assay type: cell-based, human; details: aphidicolin-arrested cells
# Procedure: as §3, §4
# MCF-10A [5] = experiment: as above; assay type: cell-based, human; details: aphidicolin-arrested cells
# Procedure: as §3, §4
# MCF-7 [6] = experiment: as above; assay type: cell-based, human; details: aphidicolin-arrested cells
# Procedure: as §3, §4
# MDA-MB231 [7] = experiment: as above; assay type: cell-based, human; details: aphidicolin-arrested cells
# Procedure: as §3, §4
# hTERT-HME1 [8] = experiment: as above; assay type: cell-based, human; details: aphidicolin-arrested cells
# Procedure: as §3, §4
# cells [9] = experiment: Cell cycle analysis, aphidicolin-treated cells; assay type: cell-based; details: cells treated with aphidicolin
# Procedure: as §3, §4
# cells [10] = experiment: ^14C-MTHF uptake after methotrexate treatment; assay type: cell-based; details: methotrexate 24 h, then ^14C-MTHF 1 h
# [11] = system: MIAPaCa, PANC1, H292, A549, SQ20B, Cal 27 and Fadu; experiment: Uptake and retention in cancer cell lines (Example 3); assay type: cell-based
# Procedure: Additional studies were performed as described above using the following cell lines:
# Pancreatic cancer - MIAPaCa and PANC1
# Head and Neck cancer—SQ20B, Cal 27 and Fadu
# [12] = Procedure: Stability of MTHF in culture medium—Folate-free RPMI 1640 (Invitrogen), fortified with 10% Fetal bovine serum (FBS, Sigma, qualified) (1 mL) in an eppendorf tube (1.5 mL) was spiked with MTHF (10 nM-100 μM) containing ˜0.05 μCi (˜1×10^5 DPM) of ^14C-MTHF as a radiotracer, and incubated under normal culture conditions (see below) for 0, 5, 30, 60, and 120 min. […] The mixture was incubated at 30° C. for 15 min and then filtered through 10K MWCO filter to remove protein. A 100 μl filtrate was analyzed by HPLC to determine the amount of dTMP formed from MTHF. A zorbax column (4.6 mm×15 cm) was eluted with a gradient of 2% to 5% methanol in 100 mM potassium phosphate, pH 6 over 2 min. The isocratic elution at this composition was conducted for 3 min and then changed linearly to 50% methanol in next 5 min. The system was held at this composition for next 5 min, and then increased up to 95% methanol to clean the column. Under these conditions, dUMP was eluted at 3.2 min, dTMP eluted at 5.8 min and MTHF/DHF eluted at 16 min. Identification and quantitation of dTMP was accomplished by comparing the retention time and area under peak of the standard solutions of dTMP.
# Stability of MTHF in culture medium—The stability of MTHF might limit its pharmaceutical use. […] The inventors therefore measured the stability of MTHF in culture medium. Concentrations of MTHF ranging from 10 nM to 100 μM, containing a fixed amount of radiotracer (C-14) were incubated in culture medium, under the conditions used for cell incorporation experiments. MTHF remaining in the medium at different time points was measured by quantitatively converting dUMP +^14C-MTHF to ^14C-dTMP by the ecTSase-catalyzed reaction. The amount of ^14C-dTMP formed was then analyzed by HPLC connected with radioactive flow detector (FIG. 2). Data were fitted to a single exponential decay. The analytical assay in which ^14C-MTHF is quantitatively converted to ^14C-dTMP was developed, tested, and used in many of our kinetic isotope effect measurements while studying TSase.
# HMEC [13] = system: HMEC
# MCF-10A [14] = system: MCF-10A
# hTERT-HME1 [15] = system: hTERT-HME1
# MDA-MB231 [16] = system: MDA-MB231
# MCF-7 [17] = system: MCF-7
# FHC [18] = system: FHC
# HT-29 [19] = system: HT-29
# cancerous cell lines [20] = system: cancerous cell lines
# [21] = first 30 min incubation in fresh medium after 2 hours uptake
# [22] = normal growing cells, 20 μM MTHF with ^14C tracer
compound,measurement,setting,value
"Nc1nc2c(c(=O)[nH]1)N1[14CH2]N(c3ccc(C(=O)N[C@@H](CCC(=O)O)C(=O)O)cc3)C[C@H]1CN2 [^14C-MTHF, [11-^14C]—(R)—N^5,N^10-methylene-5,6,7,8-tetrahydrofolate]",label retained after washing (FIG. 6),"cancerous cell lines [1]; MDA-MB231, MCF7, hTERT, HT29, successive 30 min washes, 2 h",retained the highest amount of tracer
same,release of radiotracer,cancerous cell lines [1]; [21],not more than 20%
same,release of radiotracer,normal cells; [21],> 50%
same,label retained after washing (FIG. 6),"normal cells; non-cancer counterparts, successive 30 min washes, 2 h","retained a much lower, near-background amount of label"
same,distribution of radioactivity/cell,MIAPaCa tumor,most of the radioactivity/cell was in the tumor and kidney
C[C@@]1(CO)[C@H](O)CC[C@@]2(C)[C@H]1CC[C@H]1C[C@@H]3C[C@@]12CC[C@]3(O)CO [aphidicolin],Proliferation index (S + G2M),FHC [2],3%
same,Proliferation index (S + G2M),HMEC [3],4%
same,Proliferation index (S + G2M),HT-29 [4],6%
same,Proliferation index (S + G2M),MCF-10A [5],3%
same,Proliferation index (S + G2M),MCF-7 [6],5%
same,Proliferation index (S + G2M),MDA-MB231 [7],6%
same,Proliferation index (S + G2M),hTERT-HME1 [8],6%
same,reduction of proliferation index,cells [9],up to 4 fold
"CN(Cc1cnc2nc(N)nc(N)c2n1)c1ccc(C(=O)N[C@@H](CCC(=O)O)C(=O)O)cc1 [methotrexate, reference compound]",decline in ^14C-MTHF uptake relative to untreated cells,cells [10],90-95%
same,effect of methotrexate on tracer uptake,[11]; small dose of MTX,uptake enhancement
"(R)—N^5,N^10-methylene-5,6,7,8-tetrahydrofolate [MTHF]",rate of decomposition kdec,[12]; 10 nM MTHF in culture medium,0.00121 s⁻¹
same,half-life,[12]; 20 μM MTHF in culture medium,1.3 h
same,rate of decomposition kdec,[12]; 100 μM MTHF in culture medium,3.23e-05 s⁻¹
same,stability of MTHF (time),[12]; 100 μM MTHF in culture medium,up to 330 min
same,uptake and retention of the radioactivity,"[11]; pancreatic, lung, head and neck cancer cell lines",good uptake and retention
same,MTHF uptake,HMEC [13]; aphidicolin-arrested cells,1.23 ×10^−3/10^6 cells
same,MTHF uptake,HMEC [13]; [22],5.98 ×10^−3/10^6 cells
same,MTHF uptake,MCF-10A [14]; aphidicolin-arrested cells,2.34 ×10^−3/10^6 cells
same,MTHF uptake,MCF-10A [14]; [22],7.79 ×10^−3/10^6 cells
same,MTHF uptake,hTERT-HME1 [15]; aphidicolin-arrested cells,5.74 ×10^−3/10^6 cells
same,MTHF uptake,hTERT-HME1 [15]; [22],67.3 ×10^−3/10^6 cells
same,MTHF uptake,MDA-MB231 [16]; aphidicolin-arrested cells,3.45 ×10^−3/10^6 cells
same,MTHF uptake,MDA-MB231 [16]; [22],81.3 ×10^−3/10^6 cells
same,MTHF uptake,MCF-7 [17]; aphidicolin-arrested cells,4.92 ×10^−3/10^6 cells
same,MTHF uptake,MCF-7 [17]; [22],80.0 ×10^−3/10^6 cells
same,uptake in FHC cells (FIG. 4),FHC [18]; 20 μM MTHF,not higher than background
same,MTHF uptake,FHC [18]; aphidicolin-arrested cells,0.54 ×10^−3/10^6 cells
same,MTHF uptake,FHC [18]; [22],0.94 ×10^−3/10^6 cells
same,MTHF uptake,HT-29 [19]; aphidicolin-arrested cells,3.82 ×10^−3/10^6 cells
same,"uptake, HT29 versus normal FHC cells","HT-29 [19]; colon cancer HT29 versus FHC, 20 μM MTHF",at least 30 times
same,MTHF uptake,HT-29 [19]; [22],48.9 ×10^−3/10^6 cells
same,"label uptake, cancerous versus non-cancerous control cell lines","cancerous cell lines [20]; HEMC-hTERT, MCF7 and MDA-MB231 versus HMEC, MCF10A, 20 μM MTHF",more than 3 fold
same,time at which uptake of label reached a maximum level,"cancerous cell lines [20]; cancerous cell lines, steady state",60 min
